This note sets out measurements from patent US20230295259A1 (Protagonist Therapeutics, Inc., priority 2020, published 2023).

In general, EC50 refers to the concentration giving half of the maximal effect.

T1: human ferroportin (SLC40A1) fused in frame with GFP, stably expressed in HEK293 cells (human, UniProt Q9NP59 1-571)
T1 sequence (looked up): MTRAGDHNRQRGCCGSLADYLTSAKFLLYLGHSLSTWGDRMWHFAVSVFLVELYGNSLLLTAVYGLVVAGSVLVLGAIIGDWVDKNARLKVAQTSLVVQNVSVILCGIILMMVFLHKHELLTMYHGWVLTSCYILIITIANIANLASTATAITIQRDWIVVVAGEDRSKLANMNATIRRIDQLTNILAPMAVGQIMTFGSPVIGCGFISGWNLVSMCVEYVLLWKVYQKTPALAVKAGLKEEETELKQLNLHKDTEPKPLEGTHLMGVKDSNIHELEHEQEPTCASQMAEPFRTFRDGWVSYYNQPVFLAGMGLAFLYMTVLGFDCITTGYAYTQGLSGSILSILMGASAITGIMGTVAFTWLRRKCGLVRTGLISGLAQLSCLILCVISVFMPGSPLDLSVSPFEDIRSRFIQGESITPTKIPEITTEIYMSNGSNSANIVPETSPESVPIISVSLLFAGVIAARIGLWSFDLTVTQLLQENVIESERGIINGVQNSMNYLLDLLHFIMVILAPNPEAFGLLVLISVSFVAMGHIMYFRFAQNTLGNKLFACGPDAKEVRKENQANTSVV

Non-standard residues stand in square brackets, D forms with d. Groups on a side chain read outwards from the residue. *: point of attachment. C18 diacid = O=C(O)CCCCCCCCCCCCCCCCC(=O)*; Dip = N[C@H](C(=O)O)C(c1ccccc1)c1ccccc1; β3hF = N[C@H](CC(=O)O)Cc1ccccc1; Isovaleryl = CC(C)CC(=O)*; AEEA = NCCOCCOCC(=O)O; Ahx = NCCCCCC(=O)O Bounds are passed on as bounds.

The target of the first assay is T1, human ferroportin (SLC40A1) fused in …. The assay can be described thus: cell-based or functional assay.
Conditions: not given
Consider Isovaleryl-ETH[Dip]PCCK([AEEA-AEEA-Ahx-C18 diacid])[β3hF][dK]-NH2 (not fully specified (bridges); cysteine pairing not given here) [Seq. No. 577], for which the “IC50: FPN internalisation” value was found to be 0.002 µM.

The test system of the next assay is LAD2 cells.
Assay: not given
The format is cell-based, human.
Conditions: not given
From the text: In anaphylactoid reactions, the main mechanism involves the direct stimulation of mast cells or basophils, leading to the release of anaphylactic mediators such as histamine and β-hexosaminidase. A recent study by McNeil et al. (McNeil B D et al., 2015) reported that MrgprX2, a specific membrane receptor on human mast cells, induces anaphylactoid reactions. The LAD2 (Laboratory of Allergic Diseases 2) human mast cell line, derived from human mast cell sarcoma/leukemia (Kirshenbaum et al., 2003), is commonly employed to study anaphylactoid reactions, because its biological properties are identical to those of primary human mast cells, including the overexpression of the MrgprX2 receptor and sensitivity towards degranulating peptides (Kulka et al., 2008). The release of anaphylactic mediators such as f-hexosaminidase, is assessed by fluorometric quantification.
On the day of the assay, serial dilutions of compounds were added to LAD2 cells plated at 20000 cells/well in a 96-well plate. After incubation for 30 minutes, the amount of β-hexosaminidase released into the supernatants and in cell lysates was quantified using the fluorogenic substrate 4-methylumbelliferyl-N-acetyl-b-D-glucosaminide. Dose-response curves were generated by plotting the % of β-hexosaminidase release (y-axis) against the concentrations of peptides tested (x-axis). […]. (Table 2D).
Take `CC[C@H](C)[C@@H]1NC(=O)[C@@H](NC(=O)[C@@H]2CCCN2C(=O)[C@@H](NC(=O)[C@H](Cc2cnc[nH]2)NC(=O)[C@@H](NC(=O)[C@H](CCC(=O)O)NC(=O)CC(C)C)[C@@H](C)O)C(c2ccccc2)c2ccccc2)CSSC[C@@H](C(N)=O)NC(=O)[C@@H](CCCCNC(=O)CCOCCOCCOCCOCCOCCOCCOCCOC)NC(=O)C[C@H](Cc2ccccc2)NC(=O)[C@H](CCCCNC(=O)COCCOCCNC(=O)COCCOCCNC(=O)CCCCCNC(=O)CCCCCCCCCCCCCCCCC(=O)O)NC1=O` [Compound 256, Isovaleric Acid-E-T-H-[Dpa]-P—C—I-[Lys(1PEG2_1PEG2_Ahx_C18_Diacid)]-[bhPhe]-[(D)Lys(PEG7_OMe)]—C—NH2]: the half-maximal effective concentration (EC50) was greater than 100 µM.

In the case of `CC[C@H](C)[C@@H]1NC(=O)[C@@H](NC(=O)[C@@H]2CCCN2C(=O)[C@@H](NC(=O)[C@H](Cc2cnc[nH]2)NC(=O)[C@@H](NC(=O)[C@H](CCC(=O)O)NC(=O)CC(C)C)[C@@H](C)O)C(c2ccccc2)c2ccccc2)CSSC[C@@H](C(N)=O)NC(=O)[C@@H](CCCCN)NC(=O)C[C@H](Cc2ccccc2)NC(=O)[C@H](CCCCNC(=O)COCCOCCNC(=O)COCCOCCNC(=O)CC[C@H](NC(=O)CCCCCCCCCCCCCCCCC(=O)O)C(=O)O)NC1=O` [Compound 107, Isovaleric Acid-E-T-H-[Dpa]-P-[Cys]-I-[Lys(1Peg2_1Peg2_IsoGlu_C18_Diacid)]-[bhPhe]-[(D)Lys]-[Cys]-NH2], the half-maximal effective concentration (EC50) is greater than 33 µM.

For `CC[C@H](C)[C@@H]1NC(=O)[C@@H](NC(=O)[C@@H]2CCCN2C(=O)[C@@H](NC(=O)[C@H](Cc2cnc[nH]2)NC(=O)[C@@H](NC(=O)[C@H](CCC(=O)O)NC(=O)CC(C)C)[C@@H](C)O)C(c2ccccc2)c2ccccc2)CSSCC(C(N)=O)NC(=O)[C@@H](CCCCNC(=O)CCOCCOCCOCCOCCOCCOCCOCCOCCOCCOCCOCCOC)NC(=O)C[C@H](Cc2ccccc2)NC(=O)[C@H](CCCCNC(=O)COCCOCCNC(=O)COCCOCCNC(=O)CCCCCNC(=O)CCCCCCCCCCCCCCCCC(C)=O)NC1=O` (some centres unmarked) [Compound 255, Isovaleric Acid-E-T-H-[Dpa]-P—C—I-[Lys(1PEG2_1PEG2_Ahx_C18_Diacid)]-[bhPhe]-[(D)Lys(PEG11_OMe)]—C—NH2], the EC50 was greater than 100 µM.

For the molecule `CC[C@H](C)C1NC(=O)[C@@H](NC(=O)[C@@H]2CCCN2C(=O)[C@@H](NC(=O)[C@H](Cc2cnc[nH]2)NC(=O)[C@@H](NC(=O)[C@H](CCC(=O)O)NC(=O)CC(C)C)[C@@H](C)O)C(c2ccccc2)c2ccccc2)CSSC[C@@H](C(N)=O)NC(=O)[C@@H](CCCCN)NC(=O)C[C@H](Cc2ccccc2)CC(=O)C(CCCCNC(=O)CCOCCOCCOCCOCCOCCOCCOCCOCCOCCOCCOCCOCCNC(=O)CCCCCCCCCCCCCCCCC(=O)O)NC1=O` (some centres unmarked) [Compound 113, Isovaleric Acid-E-T-H-[Dpa]-P-[Cys]-I-[Lys(2Peg11′_C18_Diacid)]-[bhPhe]-[(D)Lys]-[Cys]-NH2], a half-maximal effect (EC50) was put at 27 µM.

On to `CCCCCCCCCCCCCCCC(=O)NCCCCCC(=O)NCCCC[C@@H]1NC(=O)C[C@H](Cc2ccccc2)NC(=O)[C@@H](CCCCNC(=O)CCOCCOCCOCCOCCOCCOCCOCCOCCOCCOCCOCCOC)NC(=O)[C@H](C(C)CC)NC(=O)C(NC(=O)[C@@H]2CCCN2C(=O)[C@@H](NC(=O)[C@H](Cc2cnc[nH]2)NC(=O)[C@@H](NC(=O)[C@H](CCC(=O)O)NC(=O)CC(C)C)[C@@H](C)O)C(c2ccccc2)c2ccccc2)CSSC[C@@H](C(N)=O)NC(=O)[C@@H](CCCCNC(=O)CCOCCOCCOCCOCCOCCOCCOCCOCCOCCOCCOCCOC)NC1=O` (some centres unmarked) [Compound 19, Isovaleric Acid-E-T-H-[Dpa]-P-[Cys]-I-[(D)Lys(2Peg11′_OMe)]-[bhPhe]-[Lys(Ahx_Palm)]-[(D)Lys(2Peg11′_OMe)]-[Cys]-NH2], for which the EC50 is greater than 100 µM.

The same assay, now with this note: LAD2 mast cells, β-hexosaminidase release, 30 minutes incubation; read-out: EC50: LAD2.
Turning to “Isovaleric Acid-E-T-H-[Dpa]-P—C—I-[Lys(1PEG8_IsoGlu_C18_Diacid)]-[bhPhe]-[(D)Lys]-C—NH2 [Compound 238]”, the EC50 is greater than 100 µM.

For “Isovaleric Acid-E-T-H-[Dpa]-P—C—I-[Lys(PEG12_C18_Diacid)]-[bhPhe]-[(D)Lys(PEG11_OMe)]—C—NH2 [Compound 293]”, the concentration giving a half-maximal response (EC50) was greater than 100 µM.

Consider “Isovaleric Acid-E-T-H—F—P—C—I-[Lys(IsoGlu_Palm)]-F-E-P—R—S—K-G-[Pen]-K—NH2 [Compound 224]”, for which the 50% effective concentration (EC50) amounted to 2.6 µM.

In the case of “Isovaleric Acid-E-T-H-[Dpa]-P-[Cys]-I-[Lys(2Peg11′_IsoGlu_C18)]-[bhPhe]-[(D)Lys]-[Cys]-NH2 [Compound 112]”, the EC50 turned out to be 0.52 µM.

Consider “Isovaleric Acid-E-T-H—F—P—C—I-[Lys(1PEG2_1PEG2_IsoGlu_C18_Diacid)]-F-E-P—R—S—K-G-C—NH2 [Compound 206]”, for which the EC50 is greater than 100 µM.

Turning to “Isovaleric Acid-E-T-H—F—P—C—I-[Lys(IsoGlu_Palm)]-F-E-P—R-S-G-C—NH2 [Compound 226]”, the EC50 worked out at 15.7 µM.

Regarding “Isovaleric Acid-E-T-H-[Dpa]-P—C—I-[Lys(PEG4_PEG4_IsoGlu_C18_Diacid)]-[bhF]-[(D)Lys]-C—NH2 [Compound 237]”, the EC50 was greater than 100 µM.

With “Isovaleric Acid-E-T-H—F—P—C—I-[Lys(1PEG2_1PEG2_IsoGlu_C18_Diacid)]-F-E-P—R—S—K-G-C—K—NH2 [Compound 220]”, the EC50 is greater than 33 µM.

As for “Isovaleric Acid-E-T-H-[Dpa]-P—C—I-[Lys(1PEG2_1PEG2_IsoGlu_C18_Diacid)]-[bhPhe]-[(D)Lys]-[Pen]-NH2 [Compound 281]”, the concentration giving a half-maximal response (EC50) is greater than 100 µM.

Consider “Isovaleric Acid-E-T-H—F—P—C—I-[Lys(Ahx_Palm)]-F-E-P—R—S—K-G-C—K—NH2 [Compound 223]”, for which the EC50 was 0.7 µM.

Consider “Isovaleric Acid-E-T-H-[Dpa]-P—C—I-[Lys(PEG4_IsoGlu_C18_Diacid)]-[bhF]-[(D)Lys]-C—NH2 [Compound 239]”, for which the EC50 was greater than 100 µM.

On to “Isovaleric Acid-E-T-H-[Dpa]-P—C—I-[Lys(PEG12_IsoGlu_Palm)]-[bhPhe]-[(D)Lys(PEG11_OMe)]—C—NH2 [Compound 291]”, for which the concentration for a half-maximal effect (EC50) was greater than 100 µM.

As for “Isovaleric Acid-E-T-H-[Dpa]-P—C—I-[Lys(1PEG2_1PEG2_1PEG2_C18_Diacid)]-[bhPhe]-[(D)Lys]-C—NH2 [Compound 254]”, the concentration giving a half-maximal response (EC50) was greater than 33 µM.

Take “Isovaleric Acid-E-T-H—F—P—C—I-[Lys(IsoGlu_C18_Diacid)]-F-E-P—R—S—K-G-C—K—NH2 [Compound 222]”: the EC50 is greater than 100 µM.

“Isovaleric Acid-E-T-H-[Dpa]-P—C—I-[Lys(1PEG2_1PEG2_IsoGlu_C16_Diacid)]-[bhPhe]-[(D)Lys]-C—NH2 [Compound 232]”: the EC50 is greater than 100 µM.

Take “Isovaleric Acid-E-T-H-[Dpa]-P—C—I-[Lys(PEG12_C16_Diacid)]-[bhPhe]-[(D)Lys]-C—NH2 [Compound 265]”: the EC50 is 23.1 µM.

Consider “Isovaleric Acid-E-T-H-[Dpa]-P—C—I-[Lys(1PEG2_1PEG2_IsoGlu_C14_Diacid)]-[bhPhe]-[(D)Lys]-C—NH2 [Compound 233]”, for which the EC50 was greater than 100 µM.

For the molecule “Isovaleric Acid-E-T-H-[Dpa]-P—C—I-[Lys(1PEG2_1PEG2_Ahx_C18_Diacid)]-[bhPhe]-[(D)Lys]-[Pen]-NH2 [Compound 280]”, the EC50 turned out to be 24.3 µM.

On to “Isovaleric Acid-[Glu_OMe]-T-H-[Dpa]-P—C—I-[Lys(1PEG2_1PEG2_Ahx_C18_Diacid)]-[bhPhe]-[(D)Lys]-C—NH2 [Compound 277]”, for which the EC50 came to 11.7 µM.

In the case of “Isovaleric Acid-E-T-H-[Dpa]-P—C—I-[Lys(1PEG2_1PEG2_IsoGlu_C12_Diacid)]-[bhPhe]-[(D)Lys]-C—NH2 [Compound 234]”, the concentration giving a half-maximal response (EC50) was greater than 100 µM.

“Isovaleric Acid-E-T-H-[Dpa]-P—C—I-[Lys(PEG12_IsoGlu_C18_Diacid)]-[bhPhe]-[(D)Lys(PEG11_OMe)]—C—NH2 [Compound 292]”: the concentration for a half-maximal effect (EC50) is greater than 100 µM.

For “Isovaleric Acid-E-T-H-F—P—C—I-[Lys(IsoGlu_Palm)]-F-E-P—R-S—K-G-C—NH2 [Compound 225]”, the EC50 was determined as 4.8 µM.

As to “Isovaleric Acid-E-T-H—F—P—C—I-[Lys(1PEG2_1PEG2_Ahx_C18_Diacid)]-F-E-P—R—S—K-G-C—K—NH2 [Compound 221]”, the EC50 was greater than 100 µM.
